In paper PMC6358863, “Involvement of the Hydroperoxy Group in the Irreversible Inhibition of Leukocyte-Type 12-Lipoxygenase by Monoterpene Glycosides Contained in the Qing Shan Lu Shui Tea” (Molecules, 2019):

What was measured:
cyclooxygenase-2 = molecular target: T1, cyclooxygenase-2 (Homo sapiens, UniProt P35354); test: cyclooxygenase-2 inhibition assay; type: biochemical; details: 25 μM linoleic acid, 24 °C, 5 min
T1 sequence (P35354 18-604): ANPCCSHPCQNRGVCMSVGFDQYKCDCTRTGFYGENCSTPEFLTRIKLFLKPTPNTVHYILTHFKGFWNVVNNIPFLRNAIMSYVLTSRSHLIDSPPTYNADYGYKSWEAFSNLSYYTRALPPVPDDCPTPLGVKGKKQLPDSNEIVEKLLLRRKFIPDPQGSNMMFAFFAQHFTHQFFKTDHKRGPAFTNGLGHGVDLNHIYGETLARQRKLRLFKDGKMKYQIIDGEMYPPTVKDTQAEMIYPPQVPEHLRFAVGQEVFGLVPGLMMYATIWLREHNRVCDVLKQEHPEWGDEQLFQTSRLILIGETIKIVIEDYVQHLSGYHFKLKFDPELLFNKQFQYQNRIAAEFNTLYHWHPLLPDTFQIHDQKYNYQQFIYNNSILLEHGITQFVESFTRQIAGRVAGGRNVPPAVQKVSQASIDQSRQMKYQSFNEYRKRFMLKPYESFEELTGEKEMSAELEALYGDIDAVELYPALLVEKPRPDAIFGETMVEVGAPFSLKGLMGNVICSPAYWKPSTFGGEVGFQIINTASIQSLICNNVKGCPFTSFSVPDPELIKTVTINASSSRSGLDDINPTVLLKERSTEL
Procedure: (§1) Figure 6 Inhibition of various lipoxygenase and cyclooxygenase activities by liguroside A. Reactions were carried out under the standard conditions in the presence of liguroside A at various concentrations and the products were quantified, using a reverse-phase HPLC. Relative enzyme activities of the 15-lipoxygenase-1 (closed circles), platelet-type 12-lipoxygenase (open circles), 5-lipoxygenase (open lozenges), cyclooxygenase-1 (open triangles), and cyclooxygenase-2 (closed triangles), as compared to the activity without inhibitors, are shown.
(§2) The lipoxygenase and cyclooxygenase reactions were carried out, as described previously. […] The products extracted with ice-cold diethyl ether were analyzed by a reverse-phase HPLC, using a Waters Alliance system equipped with a COSMOSIL 5C18-MS-II column (5-μm particle, 250 × 4.6 mm i.d., Nacalai), with a solvent system of methanol-water-acetic acid (80:20:0.01, v/v), at a flow rate of 1 mL/min, as previously described. Absorption at 235 nm was continuously monitored, using a Waters 2489 UV/Visible detector (Waters, Milford, MA, USA). Protein concentration was determined using a bicinchoninic acid protein assay kit (Thermo Fisher Scientific, Waltham, MA, USA), with bovine serum albumin as a standard.

[1] = molecular target: T2, platelet-type 12-lipoxygenase (Homo sapiens, UniProt P18054); test: platelet-type 12-lipoxygenase inhibition assay; type: biochemical; details: up to 100 μM; 30 min at 37 °C
T2 sequence (P18054 1-663): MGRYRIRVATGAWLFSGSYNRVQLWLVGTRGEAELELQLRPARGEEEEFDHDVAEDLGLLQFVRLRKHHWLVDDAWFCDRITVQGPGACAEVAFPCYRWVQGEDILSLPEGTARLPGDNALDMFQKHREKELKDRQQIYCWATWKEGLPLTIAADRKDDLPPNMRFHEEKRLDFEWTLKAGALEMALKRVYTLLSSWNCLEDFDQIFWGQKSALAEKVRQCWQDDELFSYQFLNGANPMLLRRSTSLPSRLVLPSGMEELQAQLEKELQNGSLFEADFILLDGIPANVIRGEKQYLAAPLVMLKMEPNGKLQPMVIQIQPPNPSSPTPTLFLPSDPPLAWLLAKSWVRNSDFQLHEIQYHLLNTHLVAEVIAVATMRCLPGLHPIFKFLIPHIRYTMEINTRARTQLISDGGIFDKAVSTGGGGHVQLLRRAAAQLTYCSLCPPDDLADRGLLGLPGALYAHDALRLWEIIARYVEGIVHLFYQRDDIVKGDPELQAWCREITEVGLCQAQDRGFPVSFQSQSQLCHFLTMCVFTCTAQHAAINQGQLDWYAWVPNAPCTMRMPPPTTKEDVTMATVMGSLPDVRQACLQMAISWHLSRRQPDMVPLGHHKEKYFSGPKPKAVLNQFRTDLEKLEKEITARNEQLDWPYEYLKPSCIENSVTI
Procedure: as §1, §2

15-lipoxygenase = molecular target: T3, 15-lipoxygenase (Homo sapiens, UniProt P16050); test: 15-lipoxygenase inhibition assay; type: biochemical; details: 25 μM arachidonic acid, 30 °C, 5 min
T3 sequence (P16050 1-662): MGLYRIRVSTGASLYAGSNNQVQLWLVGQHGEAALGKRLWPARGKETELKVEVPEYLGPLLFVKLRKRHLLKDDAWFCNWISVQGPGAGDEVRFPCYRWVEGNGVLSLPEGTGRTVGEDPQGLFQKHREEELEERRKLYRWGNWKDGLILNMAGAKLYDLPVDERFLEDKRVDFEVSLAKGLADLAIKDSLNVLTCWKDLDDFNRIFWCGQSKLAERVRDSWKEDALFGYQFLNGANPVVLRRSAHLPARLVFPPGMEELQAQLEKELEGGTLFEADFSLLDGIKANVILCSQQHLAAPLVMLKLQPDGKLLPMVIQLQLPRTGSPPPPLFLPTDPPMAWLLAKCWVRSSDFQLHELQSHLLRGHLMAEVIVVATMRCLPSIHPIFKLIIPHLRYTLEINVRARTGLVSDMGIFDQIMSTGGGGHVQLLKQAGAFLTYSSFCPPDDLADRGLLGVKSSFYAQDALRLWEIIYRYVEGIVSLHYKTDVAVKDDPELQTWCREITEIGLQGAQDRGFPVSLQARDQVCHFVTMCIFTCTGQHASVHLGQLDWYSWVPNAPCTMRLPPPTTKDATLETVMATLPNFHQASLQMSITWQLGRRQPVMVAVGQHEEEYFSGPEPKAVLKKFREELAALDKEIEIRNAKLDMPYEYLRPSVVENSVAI
Procedure: as §1, §2

[2] = molecular target: T4, leukocyte-type 12-lipoxygenase (Mus musculus, UniProt P39654); set-up: method as in PMID 23579993; details: previous report; read-out: IC50, inhibition of leukocyte-type 12-lipoxygenase activity; cited from earlier work
T4 sequence (P39654 1-663): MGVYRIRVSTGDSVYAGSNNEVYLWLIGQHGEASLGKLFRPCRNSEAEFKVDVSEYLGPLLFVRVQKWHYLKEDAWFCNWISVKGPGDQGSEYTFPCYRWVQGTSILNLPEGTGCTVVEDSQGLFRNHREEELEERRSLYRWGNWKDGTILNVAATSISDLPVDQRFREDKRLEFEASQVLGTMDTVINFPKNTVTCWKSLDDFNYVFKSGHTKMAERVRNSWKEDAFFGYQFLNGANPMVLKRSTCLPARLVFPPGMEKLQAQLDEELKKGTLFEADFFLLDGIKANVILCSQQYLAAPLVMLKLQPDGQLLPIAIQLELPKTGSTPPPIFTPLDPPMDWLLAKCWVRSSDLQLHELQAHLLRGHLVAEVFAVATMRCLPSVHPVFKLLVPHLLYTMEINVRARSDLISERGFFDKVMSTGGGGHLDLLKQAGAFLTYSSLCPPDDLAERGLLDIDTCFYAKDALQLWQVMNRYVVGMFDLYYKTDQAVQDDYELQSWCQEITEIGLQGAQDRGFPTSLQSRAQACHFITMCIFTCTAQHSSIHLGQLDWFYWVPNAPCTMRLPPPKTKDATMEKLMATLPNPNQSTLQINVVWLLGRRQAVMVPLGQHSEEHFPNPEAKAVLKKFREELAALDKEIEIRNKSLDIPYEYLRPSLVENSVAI

cyclooxygenase-1 = cyclooxygenase-1 (Homo sapiens, UniProt P23219); test: cyclooxygenase-1 inhibition assay; type: biochemical; details: 25 μM linoleic acid, 24 °C, 5 min
Sequence of cyclooxygenase-1 (P23219 24-599, species assumed): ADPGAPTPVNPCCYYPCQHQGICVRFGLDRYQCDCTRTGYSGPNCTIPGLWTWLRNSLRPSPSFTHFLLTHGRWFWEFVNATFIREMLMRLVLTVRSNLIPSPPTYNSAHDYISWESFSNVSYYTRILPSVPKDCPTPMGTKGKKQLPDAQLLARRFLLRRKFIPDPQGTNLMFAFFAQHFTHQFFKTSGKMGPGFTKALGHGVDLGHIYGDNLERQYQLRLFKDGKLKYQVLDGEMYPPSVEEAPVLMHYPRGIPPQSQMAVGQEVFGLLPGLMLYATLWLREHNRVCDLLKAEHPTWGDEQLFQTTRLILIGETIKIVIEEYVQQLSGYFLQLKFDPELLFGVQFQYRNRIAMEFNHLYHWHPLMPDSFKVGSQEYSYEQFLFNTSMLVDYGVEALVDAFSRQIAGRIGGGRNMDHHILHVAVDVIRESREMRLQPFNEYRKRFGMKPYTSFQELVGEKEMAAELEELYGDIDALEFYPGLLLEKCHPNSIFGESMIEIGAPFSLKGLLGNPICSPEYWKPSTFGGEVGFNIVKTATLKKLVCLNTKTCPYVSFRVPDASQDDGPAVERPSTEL
Procedure: as §1, §2

IC50 (cyclooxygenase-2): 16.9 µM
effect on platelet-type 12-lipoxygenase activity (in words) [1]: almost unaffected
IC50 (15-lipoxygenase): 3.2 µM
IC50 (cyclooxygenase-1): 21.5 µM
Structure (SMILES): C/C(=C\CO[C@@H]1O[C@H](CO)[C@@H](OC(=O)/C=C/c2ccc(O)cc2)[C@H](O[C@@H]2O[C@@H](C)[C@H](O)[C@@H](O)[C@H]2O)[C@H]1O)C/C=C/C(C)(C)OO [liguroside A]
IC50 [2]: 1700 nM
